Patent US20250339547A1, “MET BCL-XL INHIBITOR ANTIBODY-DRUG CONJUGATES AND METHODS OF USE THEREOF” (Novartis AG, priority 2022, published 2025)

System: H1650 xenografts
Assay: In vivo efficacy in combination with osimertinib in Met non amplified NCI-H1650 lung adenocarcinoma human cell model, Example 16
Parameters: species or system SCID mice
Conditions: osimertinib 15 mg/kg orally on day 1, 2, 3, 4, 7, 8, 9, alone
Excerpt: Below are the procedures for determining the in vivo therapeutic effect of different Bcl-xL ADCs targeting the Met protein as a single agent or in combination with osimertinib. Their activities are compared to the corresponding naked anti-Met mAbs or Ab G-L42C-P25 (Isotype control/non-targeting ADC) formulated in Phosphate-Buffered Saline (PBS) in a Met non amplified NCI-H1650 lung adenocarcinoma human cell line after intravenous (IV) administration.
NCI-H1650 cells, obtained from ATCC, were cultured in RPMI supplemented with 10% SBS, 1% Penicillin-Streptomycin and 1% HEPES. Cells were resuspended in 50% Matrigel® (Corning®) and 0.1 ml containing 10×10^6 cells were subcutaneously inoculated into the right flank of female SCID mice, provided by JANVIER labs.
When tumors reached the appropriate volume (100-200 mm3), mice were randomized, 6 animals per group, using Easy stat software. […]
Mice body weight was monitored 3 times a week and tumor size measured using electronic calipers. […] The last day with at least half of control animals still present in the study (d25), tumor growth inhibition was calculated using the formula: […]
With DTV (Delta Tumor Volume) at Dx, calculated being TV at Dx−TV at Randomization. […]

With `C=CC(=O)Nc1cc(Nc2nccc(-c3cn(C)c4ccccc34)n2)c(OC)cc1N(C)CCN(C)C` [Osimertinib, osimertinib] the “TGI % (d 25)” value was 86.3%.
